Experiments:
[1] = test system: normal NK cells expanded with K562-aAPC; assay: drug sensitivity score (DSS) (DSS units); higher = more sensitive; extreme values may be limits of the assay; settings: 72 h; IL-2 2.5 ng/mL
Procedure: (§1)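 Drug sensitivity and resistance testing on K562-aAPC-expanded normal NK cells: 5 concentrations (10-fold steps over a 10,000-fold range), 72 h at 37 °C, viability by CellTiter-Glo normalised to DMSO and benzethonium chloride controls; DSS from the fitted curve.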

[2] = test system: normal NK cells expanded with K562-aAPC; assay: percent inhibition of viability; higher = more inhibition; settings: 72 h, IL-2 2.5 ng/mL
Procedure: as §1

NK-YS (IL-2 2.5 ng/mL) [3] = assay: drug sensitivity score (DSS) (DSS units); higher = more sensitive; extreme values may be limits of the assay; settings: 72 h
[4] = test system: normal primary NK cells, pool 2 (3 donors) (IL-2 2.5 ng/mL); assay: as above; settings: 72 h
[5] = test system: normal primary NK cells, pool 1 (3 donors) (IL-2 2.5 ng/mL); assay: as above; settings: 72 h
SNK-6 (IL-2 2.5 ng/mL) [6] = assay: as above; settings: 72 h
KHYG-1 (IL-2 2.5 ng/mL) [7] = assay: as above; settings: 72 h
DERL-7 (IL-2 2.5 ng/mL) [8] = assay: as above; settings: 72 h
[9] = test system: normal primary NK cells, pool 3 (3 donors) (IL-2 2.5 ng/mL); assay: as above; settings: 72 h
NKL (IL-2 2.5 ng/mL) [10] = assay: as above; settings: 72 h
[11] = test system: normal primary NK cells, pool 1 (3 donors), resting (IL-2 0 ng/mL); assay: as above; settings: 72 h
KAI3 (IL-2 2.5 ng/mL) [12] = assay: as above; settings: 72 h
YT (IL-2 2.5 ng/mL) [13] = assay: as above; settings: 72 h
NK-92 (IL-2 2.5 ng/mL) [14] = assay: as above; settings: 72 h
IMC-1 (IL-2 20 ng/mL) [15] = assay: as above; settings: 72 h
NK-YS (IL-2 2.5 ng/mL) [16] = assay: percent inhibition of viability; higher = more inhibition; settings: 72 h
[17] = test system: normal primary NK cells, pool 2 (3 donors) (IL-2 2.5 ng/mL); assay: as above; settings: 72 h
[18] = test system: normal primary NK cells, pool 1 (3 donors) (IL-2 2.5 ng/mL); assay: as above; settings: 72 h
SNK-6 (IL-2 2.5 ng/mL) [19] = assay: as above; settings: 72 h
KHYG-1 (IL-2 2.5 ng/mL) [20] = assay: as above; settings: 72 h
DERL-7 (IL-2 2.5 ng/mL) [21] = assay: as above; settings: 72 h
[22] = test system: normal primary NK cells, pool 3 (3 donors) (IL-2 2.5 ng/mL); assay: as above; settings: 72 h
NKL (IL-2 2.5 ng/mL) [23] = assay: as above; settings: 72 h
[24] = test system: normal primary NK cells, pool 1 (3 donors), resting (IL-2 0 ng/mL); assay: as above; settings: 72 h
KAI3 (IL-2 2.5 ng/mL) [25] = assay: as above; settings: 72 h
YT (IL-2 2.5 ng/mL) [26] = assay: as above; settings: 72 h
NK-92 (IL-2 2.5 ng/mL) [27] = assay: as above; settings: 72 h
IMC-1 (IL-2 20 ng/mL) [28] = assay: as above; settings: 72 h

O=C(NOCC1CC1)c1ccc(F)c(F)c1Nc1ccc(I)cc1Cl (max concentration tested 10000 nM)
Settings | drug sensitivity score
DERL-7 (IL-2 2.5 ng/mL) [8] | 7.6
IMC-1 (IL-2 20 ng/mL) [15] | 4.87
KAI3 (IL-2 2.5 ng/mL) [12] | 11.1
KHYG-1 (IL-2 2.5 ng/mL) [7] | 9.71
NK-92 (IL-2 2.5 ng/mL) [14] | 5.23
NK-YS (IL-2 2.5 ng/mL) [3] | 5.39
NKL (IL-2 2.5 ng/mL) [10] | 16.6
SNK-6 (IL-2 2.5 ng/mL) [6] | 4.38
YT (IL-2 2.5 ng/mL) [13] | 6.98
[1] | 2.2
[4] | 1.26
[5] | 3.11
[9] | 0.13
[11] | 3.64

percent inhibition of viability [%]
Settings | 1 nM | 10 nM | 100 nM | 1000 nM | 10000 nM
DERL-7 (IL-2 2.5 ng/mL) [21] | 2.61 | 5.1 | 12.3 | 29.5 | 78
IMC-1 (IL-2 20 ng/mL) [28] | 2.83 | 1.66 | 4.76 | 7.54 | 65.8
KAI3 (IL-2 2.5 ng/mL) [25] | 15 | 14.8 | 26.2 | 27.5 | 80.7
KHYG-1 (IL-2 2.5 ng/mL) [20] | 2.03 | 1.47 | 16.1 | 39 | 82.4
NK-92 (IL-2 2.5 ng/mL) [27] | 2.8 | 6.04 | -10.5 | -0.9 | 95.2
NK-YS (IL-2 2.5 ng/mL) [16] | 3.04 | 1.78 | 6.53 | 13.3 | 59.9
NKL (IL-2 2.5 ng/mL) [23] | 9.41 | 19 | 33.2 | 57.9 | 83.2
SNK-6 (IL-2 2.5 ng/mL) [19] | -8.27 | -11.4 | -27.2 | -19.6 | 97.3
YT (IL-2 2.5 ng/mL) [26] | 1.25 | 1.46 | 5.39 | 14.5 | 82.6
[2] | -3.45 | -0.57 | -0.04 | 3.29 | 35.4
[17] | -2.72 | -4.8 | -4.96 | 4.5 | 21
[18] | -7.14 | -7.1 | 14.2 | 13 | 17.1
[22] | -3.37 | 0.57 | -3.93 | -0.21 | 13.6
[24] | -5.53 | 0.69 | 6.91 | 8.17 | 44.4

COc1ccc(-c2cc3c(C)nc(N)nc3n([C@H]3CC[C@H](OCCO)CC3)c2=O)cn1 (max concentration tested 10000 nM)
Settings | drug sensitivity score
DERL-7 (IL-2 2.5 ng/mL) [8] | 27.6
IMC-1 (IL-2 20 ng/mL) [15] | 2.72
KAI3 (IL-2 2.5 ng/mL) [12] | 16.5
KHYG-1 (IL-2 2.5 ng/mL) [7] | 15
NK-92 (IL-2 2.5 ng/mL) [14] | 22.4
NK-YS (IL-2 2.5 ng/mL) [3] | 14.1
NKL (IL-2 2.5 ng/mL) [10] | 16.6
SNK-6 (IL-2 2.5 ng/mL) [6] | 7.29
YT (IL-2 2.5 ng/mL) [13] | 19.1
[1] | 11.5
[4] | 11
[5] | 11.4
[9] | 8.86
[11] | 14.5

percent inhibition of viability [%]
Settings | 1 nM | 10 nM | 100 nM | 1000 nM | 10000 nM
DERL-7 (IL-2 2.5 ng/mL) [21] | 2.23 | 21.8 | 69.6 | 92 | 99.9
IMC-1 (IL-2 20 ng/mL) [28] | -2.45 | -13.7 | -14.2 | -15.4 | 64.2
KAI3 (IL-2 2.5 ng/mL) [25] | 1.74 | 8.43 | 34.4 | 63.8 | 82.1
KHYG-1 (IL-2 2.5 ng/mL) [20] | 2.41 | 2.54 | 15.7 | 68.3 | 103
NK-92 (IL-2 2.5 ng/mL) [27] | 16.6 | 20.7 | 49.1 | 75.7 | 97.2
NK-YS (IL-2 2.5 ng/mL) [16] | 1.08 | -1.02 | 20.1 | 62.4 | 85
NKL (IL-2 2.5 ng/mL) [23] | -11.1 | 4.69 | 32.7 | 66.2 | 93.9
SNK-6 (IL-2 2.5 ng/mL) [19] | -16.2 | -10.9 | 2.3 | 30.8 | 65.3
YT (IL-2 2.5 ng/mL) [26] | 8.27 | 10.8 | 38.5 | 76.5 | 86.5
[2] | -6.01 | 3.97 | 27.8 | 42.7 | 60.2
[17] | -0.57 | 7.93 | 21.5 | 39.9 | 96.6
[18] | -2.26 | 7.17 | 28.9 | 35.8 | 99.4
[22] | 5.05 | 8.38 | 19.9 | 31.5 | 96.7
[24] | 19.4 | 14.7 | 33.7 | 39 | 98.8

From the supplement of paper PMC5908809
